Read-outs that look alike come from different tables or passages of the source.
Assays:
[1] = target: T1, (h)SERT (Homo sapiens, UniProt P31645); assay: block of [3H]serotonin reuptake in HEK-(h)SERT cells; format: cell-based
T1 construct: expressed in transfected cells; host or cells: HEK293

[2] = target: T2, (h)DAT (Homo sapiens, UniProt Q01959); assay: competition binding with [125I]RTI-55 at (h)DAT stably expressed in HEK293 cells; details: for Ki: mean ± standard error of three independent experiments
T2 construct: expressed in transfected cells

[3] = target: T3, (h)NET (Homo sapiens, UniProt P23975); assay: competition binding with [125I]RTI-55 at (h)NET stably expressed in HEK293 cells; details: for Ki: read-out: Binding, Ki NET, mean ± standard error of three independent experiments
[4] = tested on: rats; assay: cocaine discrimination (2-lever operant), i.p. administration; details: for responders at 10 mg/kg / responders at 25 mg/kg / responders at 50 mg/kg / responders at 100 mg/kg / responders at 5 mg/kg / ED50: Rattus norvegicus, ip; for responders at 10 mg/kg / responders at 25 mg/kg / responders at 50 mg/kg / responders at 100 mg/kg / responders at 5 mg/kg: read-out: % cocaine lever responding; for ED50: read-out: Full Generalization ED50
[5] = target: T2, (h)DAT; assay: block of [3H]dopamine reuptake in HEK-(h)DAT cells; format: cell-based; details: for times more potent than bupropion as DA uptake inhibitor: relative to bupropion
[6] = tested on: mice; assay: locomotor activity, 1-h observation protocol; format: in vivo; details: for Locomotor Activity 1-Hour ED50 / ED50: dose to produce 50% of the compound's maximal effect, 1-h; for Emax / ED50: Mus musculus; for Emax: 0.5 h, read-out: Locomotor Activity 1-Hour % Peak Cocaine
[7] = tested on: mice; assay: locomotor activity, 8-h time course protocol; format: in vivo; details: for locomotor stimulant activity across the 1-h and 8-h protocols, in words: 1-h and 8-h tests compared; for Emax / ED50: Mus musculus; for Emax: read-out: Locomotor Activity 8-Hour % Peak Cocaine, percent of cocaine's maximal effect, 30 min period of maximum stimulation; for ED50: read-out: Locomotor Activity 8-Hour ED50; for Locomotor Activity 8-Hour Time, min Period, length: duration of locomotor activity; for Locomotor Activity 8-Hour Time, min Period, max: time period of maximum effect; for onset and duration of locomotor activity, in words: mouse, in vivo
[8] = target: T1, (h)SERT; details: read-out: Binding, Ki SERT
[9] = target: T3, (h)NET; assay: block of [3H]norepinephrine reuptake in HEK-(h)NET cells
[10] = tested on: rats; assay: cocaine discrimination time-course study, oral administration; details: for ED50: Rattus norvegicus, po, 0.75 h; for generalization to cocaine: p.o.
[11] = [3H]5HT, read-out: IC50 for 5HT uptake inhibition
[12] = mean ± standard error of three independent experiments, read-out: Uptake, IC50 [3H]DA
[13] = dose to produce 50% of the compound's maximal effect, 8-h
[14] = [3H]DA, read-out: IC50 for DA uptake inhibition
[15] = read-out: Uptake, IC50 [3H]NE, mean ± standard error of three independent experiments
[16] = mean ± standard error of three independent experiments
[17] = read-out: IC50 for NE uptake inhibition, [3H]NE

T3 sequence (P23975 whole entry): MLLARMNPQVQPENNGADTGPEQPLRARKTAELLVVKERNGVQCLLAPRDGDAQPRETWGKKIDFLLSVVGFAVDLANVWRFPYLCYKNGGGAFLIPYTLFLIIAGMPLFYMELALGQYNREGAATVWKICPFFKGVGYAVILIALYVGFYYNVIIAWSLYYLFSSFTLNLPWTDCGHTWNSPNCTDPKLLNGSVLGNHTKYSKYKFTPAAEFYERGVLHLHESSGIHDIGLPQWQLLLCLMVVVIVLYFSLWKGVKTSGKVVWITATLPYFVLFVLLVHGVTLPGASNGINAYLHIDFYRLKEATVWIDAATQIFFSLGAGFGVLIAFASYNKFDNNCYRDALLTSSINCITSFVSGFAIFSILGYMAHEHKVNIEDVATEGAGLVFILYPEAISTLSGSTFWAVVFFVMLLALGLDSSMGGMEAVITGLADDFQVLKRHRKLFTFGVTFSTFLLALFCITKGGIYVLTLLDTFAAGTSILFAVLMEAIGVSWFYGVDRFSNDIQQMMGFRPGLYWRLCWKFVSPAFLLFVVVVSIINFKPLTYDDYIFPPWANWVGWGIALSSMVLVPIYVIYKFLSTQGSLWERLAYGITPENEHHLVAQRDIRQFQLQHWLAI
T1 sequence (P31645 whole entry): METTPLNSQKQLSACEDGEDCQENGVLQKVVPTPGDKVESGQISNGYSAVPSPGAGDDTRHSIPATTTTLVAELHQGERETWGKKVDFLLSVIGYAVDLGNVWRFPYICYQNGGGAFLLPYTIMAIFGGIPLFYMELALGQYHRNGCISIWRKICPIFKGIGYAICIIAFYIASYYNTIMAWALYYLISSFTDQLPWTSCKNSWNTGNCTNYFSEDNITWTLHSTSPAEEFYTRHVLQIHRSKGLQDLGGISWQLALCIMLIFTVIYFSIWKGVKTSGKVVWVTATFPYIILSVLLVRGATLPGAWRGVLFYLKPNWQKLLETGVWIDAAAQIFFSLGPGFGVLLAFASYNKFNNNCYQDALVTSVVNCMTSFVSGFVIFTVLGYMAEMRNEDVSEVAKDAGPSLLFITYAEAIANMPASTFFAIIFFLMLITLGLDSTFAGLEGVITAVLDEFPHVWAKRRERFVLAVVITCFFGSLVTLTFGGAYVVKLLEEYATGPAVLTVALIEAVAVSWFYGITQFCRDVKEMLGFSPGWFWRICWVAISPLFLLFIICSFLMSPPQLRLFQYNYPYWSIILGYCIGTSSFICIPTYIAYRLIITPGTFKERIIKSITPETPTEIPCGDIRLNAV
T2 sequence (Q01959 whole entry): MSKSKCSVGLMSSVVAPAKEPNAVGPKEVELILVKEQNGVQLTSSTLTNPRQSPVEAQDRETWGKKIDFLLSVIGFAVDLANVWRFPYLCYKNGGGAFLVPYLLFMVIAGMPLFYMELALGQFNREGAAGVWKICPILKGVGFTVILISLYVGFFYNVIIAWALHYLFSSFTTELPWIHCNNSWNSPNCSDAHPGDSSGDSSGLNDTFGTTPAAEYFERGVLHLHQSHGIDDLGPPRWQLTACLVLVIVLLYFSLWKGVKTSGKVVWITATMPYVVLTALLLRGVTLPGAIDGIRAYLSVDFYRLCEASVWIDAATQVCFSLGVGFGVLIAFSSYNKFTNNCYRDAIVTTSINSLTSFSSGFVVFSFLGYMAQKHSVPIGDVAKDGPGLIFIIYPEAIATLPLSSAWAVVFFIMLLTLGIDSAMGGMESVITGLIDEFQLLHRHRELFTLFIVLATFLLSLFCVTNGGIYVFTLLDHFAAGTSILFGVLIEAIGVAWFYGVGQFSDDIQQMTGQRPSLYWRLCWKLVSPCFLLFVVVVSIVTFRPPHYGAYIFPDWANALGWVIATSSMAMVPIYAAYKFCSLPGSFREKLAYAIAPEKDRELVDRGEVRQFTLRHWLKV

| SMILES | responders at 10 mg/kg [4] | responders at 25 mg/kg [4] | responders at 50 mg/kg [4] | responders at 100 mg/kg [4] | Ki [2] | Locomotor Activity 1-Hour ED50 [6] | locomotor stimulant activity across the 1-h and 8-h protocols, in words [7] | Emax [7] | ED50 [7, 13] | Locomotor Activity 8-Hour Time, min Period, length [7] | Locomotor Activity 8-Hour Time, min Period, max [7] | IC50 [5, 14] | times more potent than bupropion as DA uptake inhibitor [5] | IC50 [9, 15] | Ki [3] | Emax [6] | ED50 [6] | responders at 5 mg/kg [4] | ED50 [10] | other results |
| --- | --- | --- | --- | --- | --- | --- | --- | --- | --- | --- | --- | --- | --- | --- | --- | --- | --- | --- | --- | --- |
| C[C@@H](NC(C)(C)C)[C@H](O)c1ccccc1 (racemic) [Compound 7, (1RS,2RS)-2-(N-tert-Butylamino)-1-phenyl-1-propanol, reference compound] |  |  |  |  |  |  |  |  |  |  |  |  |  |  |  |  |  |  |  | IC50 [1, 11]: 1.24 µM; affinity at the DAT, in words [2]: loss of affinity; affinity at the NET, in words [3]: loss of affinity |
| CC(NC(C)(C)C)C(=O)c1ccc(Br)cc1 (centres unmarked) [Compound 2g, 2-(N-tert-Butylamino)-4′-bromopropiophenone] | 1% | 17% | 17% | 0% | 1920 nM | NE^f | inactive in the 1-h test but showed weak stimulant activity in the 8-h protocol | 54% | 32 mg/kg | 160 min | 140 to 170 min |  |  |  |  |  |  |  |  | IC50 ([1]; read-out: Uptake, IC50 [3H]5-HT): 2.52 µM; IC50 [5, 12]: 1300 nM; Ki [8]: 4170 nM |
| CC(NC(C)(C)C)C(=O)c1ccc(Cl)c(Cl)c1 (centres unmarked) [Compound 2j, 2-(N-tert-Butylamino)-3′,4′-dichloropropiophenone] | 0% | 17% | 34% | 2% | 472 nM | NE^f |  | 61% | 39.1 mg/kg | 140 to 240 min |  | 271 nM | 3.5 times | 2100 nM | 5400 nM |  |  |  |  | generalization to the cocaine cue, in words ([4]; i.p.): did not even show partial generalization; onset and duration of locomotor activity, in words [7]: very slow onset of stimulatory activity; Ki [8]: 1480 nM |
| Cc1ccc(C(=O)C(C)NC(C)(C)C)cc1Cl (centres unmarked) [Compound 2k, 2-(N-tert-Butylamino)-3′-chloro-4′-methylpropiophenone] |  |  |  |  | 1150 nM |  | moderate activity in the 1-h test with increased activity in the time-course study | 87% |  | 60 min | 10 to 40 min | 650 nM | 2 times | 900 nM | 5100 nM | 74% | 31.9 mg/kg |  |  | IC50 [1, 11]: 0.4 µM; ED50 ([7]; 8 h): 60.8 mg/kg; Ki [8, 16]: 2100 nM |
| Cc1cc(C(=O)C(C)NC(C)(C)C)ccc1Br (centres unmarked) [Compound 2l, 2-(N-tert-Butylamino)-4′-bromo-5′-methylpropiophenone] | 0% | 0% | 17% | 67% |  | NE^f |  | 46% | 12.8 mg/kg | 240 min | 50 to 80 min |  |  | 1620 nM | 4600 nM |  |  |  |  | IC50 ([1]; read-out: IC50 for 5HT uptake inhibition): 0.473 µM; Ki [8]: 1220 nM |
| CCCC(NC(C)(C)C)C(=O)c1cccc(Cl)c1 (centres unmarked) [Compound 2p, 2-(N-tert-Butylamino)-3′-chloropentanophenone] | 33% | 83% |  |  | 96 nM |  | activity similar to cocaine in the 1-h protocol but weakened significantly in the 8-h time-course study | 72% | 16.3 mg/kg | 210 to 480 min | 90 to 120 min |  | 29 times | 472 nM | 1170 nM | 96% | 17.2 mg/kg | 1% | 22.2 mg/kg | ED50 [4]: 11.9 mg/kg; IC50 [5, 12]: 33 ± 7 nM; generalization to cocaine ([10]; 45 min, 50 mg/kg): partial generalization; generalization to cocaine ([10]; 45 min, 100 mg/kg): full generalization; generalization to cocaine ([10]; 90 min, 100 mg/kg): full generalization; generalization to cocaine ([10]; 180 min, 100 mg/kg): partial generalization |
| CCCCC(NC(C)(C)C)C(=O)c1cccc(Cl)c1 (centres unmarked) [Compound 2q, 2-(N-tert-Butylamino)-3′-chlorohexanophenone] | 67% | 10% |  |  | 350 nM |  |  | 110% | 13.1 mg/kg | 40 to 460 min | 0 to 30 min | 69 nM | 14 times | 400 nM | 3190 nM | 81% | 13.5 mg/kg | 1% | 37.9 mg/kg | ED50 [4]: 8.17 mg/kg |
| CCCCCCC(NC(C)(C)C)C(=O)c1cccc(Cl)c1 (centres unmarked) [Compound 2s, 2-(N-tert-Butylamino)-3′-chlorooctanophenone] | 0% | 49% | 50% | 67% | 510 nM |  | weak stimulants in both tests | 60% | 9 mg/kg | 130 to 140 min | 110 to 140 min | 135 nM |  | 4890 nM | 2580 nM | 61% | 33.3 mg/kg | 0% | 37.9 mg/kg |  |
| CC(C)CC(NC(C)(C)C)C(=O)c1cccc(Cl)c1 (centres unmarked) [Compound 2t, 2-(N-tert-Butylamino)-3′-chlorophenyl-4-methylpentanophenone] |  |  |  |  | 140 nM | 47.7 mg/kg | weak stimulants in both tests |  |  | 320 min | 260 to 290 min | 440 nM |  | 360 nM | 2300 nM |  |  |  |  | IC50 ([1]; bound given in μM, read-out: Uptake, IC50 [3H]5-HT): > 10 µM; Locomotor Activity 1-Hour % Peak Cocaine ([6]; maximal effect as percent of cocaine's maximal effect in the first 30 min): 62%; Locomotor Activity 8-Hour ED50 [7, 13]: 22.1 mg/kg; onset and duration of locomotor activity, in words [7]: very slow onset of stimulatory activity; Locomotor Activity 8-Hour % Peak Cocaine ([7]; percent of cocaine's maximal effect, 30 min period of maximum stimulation): 35%; Ki [8, 16]: 6200 nM |
| CCCNC(C)C(=O)c1cccc(Cl)c1 (centres unmarked) [Compound 2v, 2-(N-Propylamino)-3′-chloropropiophenone] |  |  |  |  |  | NE^f |  |  |  |  |  |  |  |  |  |  |  |  |  | 5HT uptake inhibition, in words [1]: inactive; DA uptake inhibition, in words [5]: inactive; Locomotor Activity 8-Hour ED50 [7, 13]: NE^f; NE uptake inhibition, in words [9]: inactive |
| CC(NC1CCC1)C(=O)c1cccc(Cl)c1 (centres unmarked) [Compound 2y, 2-(N-Cyclobutylamino)-3′-chloropropiophenone] |  |  |  |  | 343 nM |  |  |  |  |  |  | 258 nM | 3.7 times | 86 nM | 1800 nM |  |  |  |  | IC50 [1, 11]: 0.185 µM; IC50 [9, 17]: 86 nM; times better as NE uptake inhibitors than bupropion ([9]; relative to bupropion): 17 times; Ki [8, 16]: 3450 nM |
| CC(NC1CCCC1)C(=O)c1cccc(Cl)c1 (centres unmarked) [Compound 2z, 2-(N-Cyclopentylamino)-3′-chloropropiophenone] | 0% | 66% | 83% |  | 2200 nM |  | strong stimulants in both studies | 110% |  | 330 to 340 min | 0 to 30 min | 980 nM |  |  | 5700 nM | 110% | 10.6 mg/kg | 2% | 8.28 mg/kg | 5HT uptake inhibition, in words [1]: totally inactive; ED50 [4]: 10.8 mg/kg; ED50 ([7]; 8 h): 10.6 mg/kg; onset and duration of locomotor activity, in words [7]: long durations of action; IC50 [9, 17]: 221 nM |

Reference: US10919841B2, “Monoamine reuptake inhibitors” (Research Triangle Institute, priority 2009, dated 2021)
